Measured values taken from ChEMBL document CHEMBL3745630, “Cloning, characterization and anion inhibition studies of a γ-carbonic anhydrase from the Antarctic bacterium Colwellia psychrerythraea” (Bioorg Med Chem, 2016).

Test: Inhibition of Colwellia psychrerythraea gamma carbonic anhydrase expressed in Escherichia coli incubated for 15 mins prior to testing by stopped flow CO2 hydration method

Row | SMILES | Ki [mM]
1 | F[P-](F)(F)(F)(F)F.[Na+] | 5.6
2 | CCN(CC)C(=S)S [DITIOCARB SODIUM] | 0.58
3 | O=[As](O)(O)c1ccccc1 [PHENYLARSONIC ACID] | 0.038
4 | OB(O)c1ccccc1 [PHENYLBORONIC ACID] | 0.026
5 | [N-]=[N+]=[N-] [SODIUM AZIDE] | > 100
6 | O=C([O-])O.[Na+] [SODIUM BICARBONATE] | 1.7
7 | O=S([O-])O.[Na+] [SODIUM BISULFITE] | 37.5
8 | [Br-].[Na+] [SODIUM BROMIDE] | > 100
9 | O=C([O-])[O-].[Na+].[Na+] [SODIUM CARBONATE] | 1.4
10 | S=C(S)S [SODIUM CARBONOTRITHIOATE] | 3.8
11 | [Cl-].[Na+] [SODIUM CHLORIDE] | 9
12 | N#CO [SODIUM CYANATE] | 2.5
13 | [F-].[Na+] [SODIUM FLUORIDE] | > 100
14 | S [SODIUM HYDROSULFIDE] | 4.8
15 | [I-].[Na+] [SODIUM IODIDE] | 8.7
16 | N=C=[Se] [SODIUM ISOSELENOCYANATE] | 6
17 | N=C=S [SODIUM ISOTHIOCYANATE] | 3.3
18 | O=[N+]([O-])[O-].[Na+] [SODIUM NITRATE] | 21.7
19 | O=NO [SODIUM NITRITE] | 8.8
20 | [O-][Cl+3]([O-])([O-])O [SODIUM PERCHLORATE] | > 100
21 | O=S(=O)(O)OOS(=O)(=O)O [SODIUM PERSULFATE] | 4.5
22 | O=[Se](=O)(O)O [SODIUM SELENATE] | 8.3
23 | O=S(=O)([O-])[O-].[Na+].[Na+] [SODIUM SULFATE ANHYDROUS] | 9.4
24 | O=[Te](=O)(O)O [SODIUM TELLURATE] | 5.1
25 | O=BOB(O)OB(O)OB=O [SODIUM TETRABORATE] | 4.7
26 | F[B-](F)(F)F.[Na+] [SODIUM TETRAFLUOROBORATE] | > 100
27 | NS(=O)(=O)O [SULFAMATE] | 0.037
28 | NS(N)(=O)=O [SULFAMIDE] | 0.008
